Experimental findings from PubChem BioAssay AID200 (DTP/NCI, 2004) are described below.

This experiment has as its system B6C3F1 mice, B16 melanoma ip, median survival T/C. Nature of the experiment: NCI In Vivo Anticancer Drug Screen. Data for tumor model B16 Melanoma (intraperitoneal) in B6C3F1 mice. The following applies: endpoint: median survival time, schedule: Q01DX009 (ip), higher = longer survival. Put shortly:
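Values are T/C ratios: the measurement in treated animals divided by that in vehicle-treated controls, using survival or tumor size in mice carrying transplantable tumors.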

[1] abbreviates: dose: 12.5 mg/kg/injection, vehicle: saline with Tween-80.
Where [2] appears, read: dose: 25.0 mg/kg/injection, vehicle: saline with Tween-80.
Setting [3] is: dose: 50.0 mg/kg/injection, vehicle: saline with Tween-80.
Setting [4] is: dose: 25.0 mg/kg/injection, vehicle: Klucel (hydroxypropylcellulose) (HPC).
Setting [5] is: dose: 100.0 mg/kg/injection, vehicle: Klucel (hydroxypropylcellulose) (HPC).
Setting [6] is: dose: 200.0 mg/kg/injection, vehicle: Klucel (hydroxypropylcellulose) (HPC).
[7] abbreviates: dose: 400.0 mg/kg/injection, vehicle: Klucel (hydroxypropylcellulose) (HPC).
The mark [8] stands for this setting: dose: 100.0 mg/kg/injection, vehicle: saline with Tween-80.

Where “and” joins values, the source holds several entries; their conditions need not be identical. Identical values can stand only once. Toxic doses and inconclusive results are not listed.

For the compound `COC1/C=C\C=C(/C)C(=O)NC2=CC(=O)C(N)=C(CC(C)CC(OC)C(O)C(C)C=C(C)C1OC(N)=O)C2=O` (configuration not stated), the T/C reads like this: (dose: 0.75 mg/kg/injection, vehicle: saline with Tween-80) 113 % of control; (dose: 1.5 mg/kg/injection, vehicle: saline with Tween-80) 113 % of control; (dose: 3.0 mg/kg/injection, vehicle: saline with Tween-80) 116 % of control.

`CCC(NC(N)=O)C(CC)NC(N)=O` (configuration not stated): the T/C under setting [1] is 99 % of control, the T/C under setting [2] is 96 % of control and the T/C under setting [3] was 89 % of control.

In the case of `O=S(=O)(SC(S(=O)(=O)c1ccccc1)S(=O)(=O)c1ccccc1)c1ccccc1`, the T/C (dose: 12.5 mg/kg/injection, vehicle: Klucel (hydroxypropylcellulose) (HPC)) was 109 % of control; the T/C under setting [4] was 115 % of control; the T/C (dose: 50.0 mg/kg/injection, vehicle: Klucel (hydroxypropylcellulose) (HPC)) is 114 % of control; the T/C under setting [5] was 107 % of control; the T/C under setting [6] was 106 % of control; the T/C under setting [7] was 98 % of control.

`Cc1c(NS(=O)(=O)c2ccccc2)c(C)c(NS(=O)(=O)c2ccccc2)c(C)c1NS(=O)(=O)c1ccccc1`: the T/C reads like this: under setting [1], 97 % of control; under setting [2], 100 % of control; under setting [3], 94 % of control.

On to `CCOC(=O)C(Cc1ccc(O)cc1)NC(=O)c1ccccc1` (configuration not stated), for which the T/C by setting is: (dose: 40.0 mg/kg/injection, vehicle: saline with Tween-80) 116 % of control; (dose: 80.0 mg/kg/injection, vehicle: saline with Tween-80) 96 % of control; (dose: 160.0 mg/kg/injection, vehicle: saline with Tween-80) 112 % of control; (dose: 320.0 mg/kg/injection, vehicle: saline with Tween-80) 96 % of control; (dose: 640.0 mg/kg/injection, vehicle: saline with Tween-80) 101 % of control.

On to `Nc1nc2nc[nH]c2c(=O)[nH]1`, for which the T/C reads like this: (dose: 6.25 mg/kg/injection, vehicle: saline with Tween-80) 116 % of control; under setting [1], 105 % of control; under setting [2], 104 % of control; under setting [3], 102 % of control; under setting [8], 90 % of control.

With `CNc1cccnc1/C=N/NC(N)=S`, the T/C was 119 % of control under setting [1], 159 % of control under setting [3] and 151 % of control under setting [8].

With `Cc1c(-c2ccc(C3CCCCC3)cc2)nc2ccc(F)cc2c1C(=O)O`, the T/C by setting is: under setting [4], 121 % of control; under setting [5], 155 % of control; under setting [6], 150 % of control; under setting [7], 160 % of control and 179 % of control.
